Test results from patent publication US5906918A, “Compositions and methods for measurement of oxidative DNA damage” (Health Research Inc., priority 1997, dated 1999).

Key:
nuclease P1 [1] = target: T1, nuclease P1 (Penicillium citrinum, UniProt P24289); assay: Endonuclease (nuclease P1) turnover rate for hydrolysis of modified dinucleoside monophosphates; format: biochemical; settings: 6 nmol substrate in 100 μl 60 mM sodium acetate buffer pH 5.3 with zinc chloride, 50 ng nuclease P1, 37° C., HPLC analysis
T1 sequence (P24289 1-270): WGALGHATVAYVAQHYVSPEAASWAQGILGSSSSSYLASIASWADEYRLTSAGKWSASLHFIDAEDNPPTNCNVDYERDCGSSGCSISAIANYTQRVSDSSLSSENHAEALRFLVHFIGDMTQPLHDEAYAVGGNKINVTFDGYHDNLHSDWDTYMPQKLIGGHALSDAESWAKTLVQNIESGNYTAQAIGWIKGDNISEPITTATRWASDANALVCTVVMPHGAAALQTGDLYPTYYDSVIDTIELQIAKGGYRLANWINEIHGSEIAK
Method: The endonuclease turnover rate was measured in terms of the number of substrate molecules hydrolyzed per minute per molecule of enzyme. The substrates were modified dinucleoside monophosphates comprising the DNA base modifications illustrated in FIG. 1. The respective unmodified dinucleoside monophosphates were purchased commercially, with the exceptions of d(GpG), d(GpC), d(GpA), and d(GpT) which were prepared using methods previously described (Paul et al., 1988, Int. J. Radiat. Biol. 54:403-415). A solution of each the unmodified dinucleoside monophosphates was X-irradiated, and the corresponding modified dinucleoside monophosphate was isolated by reverse-phase HPLC (see, e.g., Schroder et al., 1995, Int. J. Radiat. Biol. 68:509-23; and Box et al., 1995, In Radiation Damage in DNA, eds. Fuciarelli and Zimbrick, publs. Battelle Press). The one exception to producing modified dinucleoside monophosphates was the production of the DNA base modification thymine glycol. Modified dinucleoside monophosphates bearing the thymine glycol modification were prepared by treating dTpA with osmium tetroxide (see, e.g., Belfi et al., 1986, supra). The DNA base modifications were identified using proton nuclear magnetic resonance spectroscopy (see, e.g., Schroder et al., 1995, Int. J. Radiat. Biol. 68:509-23).
Concentrations of the modified dinucleoside monophosphates were determined spectrophotometrically at 260 nm. The rates of hydrolysis for the modified dinucleoside monophosphates by endonuclease were obtained from measurements of equimolar amounts of the substrate modified dinucleoside monophosphate (6 nmol) in 100 μl of 60 mM sodium acetate buffer (pH 5.3, containing […] zinc chloride). Hydrolysis was initiated by the addition of the endonuclease (50 ng of nuclease P1 in 2 μl buffer) and the reactants were incubated in a 37° C. water bath. At varying times, hydrolysis was terminated by the addition of 15 μl of 1M Tris, and rapid freezing in a liquid nitrogen bath. The products of digestion were analyzed by injecting the digest onto a C-18 reverse phase HPLC column, with elution using a 5%-53% linear gradient of CH3 CN/0.1M ammonium acetate buffer, pH 7.0 at a 1.0 ml/minute flow rate. Moles of protein were calculated from the weight of the material and the known molecular weights for the constituents. The results of the measurement of the endonuclease turnover rates (R, as measured in terms of molecules hydrolyzed per minute per molecule of enzyme) for each of the modified dinucleoside monophosphates tested is illustrated in Table 1.

nuclease P1 [2] = target: T1, nuclease P1; settings: endonucleases such as nuclease P1; Maccubbin et al., 1993; cited from earlier work

| SMILES | endonuclease turnover rate R (nuclease P1 [1]) | hydrolysis by endonuclease of the phosphoester bond 3' to the modified nucleoside (nuclease P1 [2]) |
| --- | --- | --- |
| Nc1ncnc2c1ncn2[C@H]1C[C@H](O)[C@@H](COP(=O)(O)O[C@H]2C[C@H](NC=O)O[C@@H]2CO)O1 [d(T*pA) formamido remnant] | no hydrolysis detected | do not hydrolyze |
| Nc1ccn([C@H]2C[C@H](O)[C@@H](COP(=O)(O)O[C@H]3C[C@H](NC=O)O[C@@H]3CO)O2)c(=O)n1 [d(T*pC) formamido remnant] | no hydrolysis detected |  |
| Nc1nc2c(ncn2[C@H]2C[C@H](O)[C@@H](COP(=O)(O)O[C@H]3C[C@H](NC=O)O[C@@H]3CO)O2)c(=O)[nH]1 [d(T*pG) formamido remnant] | no hydrolysis detected |  |
| Cc1cn([C@H]2C[C@H](O)[C@@H](COP(=O)(O)O[C@H]3C[C@H](NC=O)O[C@@H]3CO)O2)c(=O)[nH]c1=O [d(T*pT) formamido remnant] | no hydrolysis detected |  |
